Experiments:
Format in all cases: in vivo, mouse
Will-2 (DLBCL) cells = experiment: Xenograft tumor model, DLBCL (WILL-2); details: oral gavage
Protocol: (§1) The purpose of this assay is to measure in a mouse model of cancer the reduction in tumor volume in response to test compound administration.
(§2) Grow A375 (melanoma) cells in DMEM/High glucose (HYCLONE™ cat. # SH30022) with 10% HI FBS (GIBCO® cat. #10082-147). Grow Will-2 (DLBCL) cells in RPMI 1640 with L-glutamine and 20% heat inactivated FBS. Grow Namalwa (Burkitt's lymphoma) cells (ATCC) in RPMI 1640 media supplemented with L-glutamine, 25 mM HEPES (GIBCO® 22400-089), 1 mM sodium pyruvate and 7.5% FBS. Grow Molt 4 cells in RPMI 1640 with L-glutamine, 25 mM HEPES [GIBCO 22400-089], 1 mM sodium pyruvate, and 10% FBS. Harvest cells and inject subcutaneously onto the rear flank of nude mice (A375: 5×10^6 cells/animal, mixed 1:1 with MATRIGEL®; Will-2; 1×10^7 cells/animal; Namalwa: 2×10^6 cells/animal; Molt 4: : 5×10^6 cells/animal, mixed 1:1 with MATRIGEL®). When tumors are established (approximately 200 mm^3, 7-21 days after implant), randomize animals, and group them into control and test groups. Formulate the test compound in 1% HEC/0.25% TWEEN®-80/0.05% Antifoam. Administer test compound and vehicles by oral gavage. Determine tumor response by tumor volume measurement (caliper) performed twice a week during the course of treatment and report as the percent inhibition of tumor volume versus the vehicle control group.

[1] = system: Namalwa (Burkitt's lymphoma) cells; experiment: Xenograft tumor model, lymphoma (Namalwa); details: oral gavage
Protocol: as §1, §2

A375 (melanoma) cells = experiment: Xenograft tumor model, melanoma (A375); details: 4-day-on and 3-day-off schedule for 26 days, oral gavage
Protocol: as §1, §2

Nc1ncnc2c1ccn2[C@@H]1O[C@H]([C@H](O)c2ccc(Cl)cc2)[C@@H](O)[C@H]1O [Example 1, (2R,3R,4S,5R)-2-(4-Aminopyrrolo[2,3-d]pyrimidin-7-yl)-5-[(R)-(4-chlorophenyl)-hydroxy-methyl]tetrahydrofuran-3,4-diol]
tumor regression (Will-2 (DLBCL) cells; 2 mg/kg BID for 14 days): 50% | percent inhibition of tumor volume versus vehicle (Will-2 (DLBCL) cells; 5 mg/kg QD for 14 days): 74% | percent inhibition of tumor volume versus vehicle ([1]; 2 mg/kg BID for 14 days): 74% | percent inhibition of tumor volume versus vehicle ([1]; 5 mg/kg QD for 14 days): 61% | percent inhibition of tumor volume versus vehicle (A375 (melanoma) cells; 10 mg/kg QD): 64% | percent inhibition of tumor volume versus vehicle (A375 (melanoma) cells; 15 mg/kg): 71%
